Structures are written as SMILES.

By IC50 is commonly meant the concentration that inhibits the measured activity by half.

The experiment addresses human ATX (autotaxin, ENPP2), His-tagged (Homo sapiens (Human), UniProt Q13822). Description: Human ATX enzyme inhibition assay (fluorescence quenching, MR121 substrate). Format: biochemical. The conditions noted are these: 30 nM ATX, 1 μM MR121 substrate, 30° C., pH 8.0. As for the experimental part: Human ATX Enzyme Inhibition Assay
ATX inhibition was measured by a fluorescence quenching assay using a specifically labeled substrate analogue (MR121 substrate). To obtain this MR121 substrate, BOC and TBS protected 6-amino-hexanoic acid (R)-3-({2-[3-(2-{2-[2-(2-amino-ethoxy)-ethoxy]-ethoxy}-ethoxy)-propionylamino]-ethoxy}-hydroxy-phosphoryloxy)-2-hydroxy-propyl ester (Ferguson et al., Org. Lett. 2006, 8, 2023) was labeled with MR121 fluorophore [CAS RN 185308-24-1], 1-(3-carboxypropyl)-11-ethyl-1,2,3,4,8,9,10,11-octahydro-dipyrido[3,2-b:2′,3′-i]phenoxazin-13-ium) on the free amine of the ethanolamine side and then, after deprotection, subsequently with tryptophan on the side of the aminohexanoic acid.
Assay working solutions were made as follows:
Assay buffer (50 mM Tris-HCl, 140 mM NaCl, 5 mM KCl, 1 mM CaCl2, 1 mM MgCl2, 0.01% Triton-X-100, pH 8.0;
ATX solution: ATX (human His-tagged) stock solution (1.08 mg/mL in 20 mM bicine, pH 8.5, 0.15 M NaCl, 10% glycerol, 0.3% CHAPS, 0.02% NaN3), diluted to 1.4-2.5× final concentration in assay buffer;
MR121 substrate solution: MR121 substrate stock solution (800 μM MR121 substrate in DMSO), diluted to 2-5× final concentration in assay buffer.
Test compounds (10 mM stock in DMSO, 8 μL) were obtained in 384 well sample plates (Corning Costar #3655) and diluted with 8 μL DMSO. Row-wise serial dilutions were made by transferring 8 μL cpd solution to the next row up to row O. The compound and control solutions were mixed five times and 2 μL were transferred to 384 well assay plates (Corning Costar #3702). Then, 15 μL of 41.7 nM ATX solution was added (30 nM final concentration), mixed five times and then incubated for 15 minutes at 30° C. 10 μL of MR121 substrate solution was added (1 μM final concentration), mixed 30 times and then incubated for 15 minutes at 30° C.
For `CC(=O)N1CCN(c2ccc3ncn(CC(=O)NCCc4ccc(Cl)c(Cl)c4)c(=O)c3c2)CC1` [Example 49], it took 179 nM to reach half-maximal inhibition (IC50).

Molecule `CCC(=O)N1CCN(c2ccc3ncn(CC(=O)N(C)Cc4ccc(Cl)c(Cl)c4)c(=O)c3c2)CC1` [Example 68] gave an IC50 of 4 nM.

The molecule `CN(Cc1ccc(Cl)c(Cl)c1)C(=O)Cn1cnc2ccc(N3CCN(C(=O)C4CCC4)CC3)cc2c1=O` [Example 73] came in with an IC50 of 6 nM.

The molecule `CN(Cc1ccc(Cl)c(Cl)c1)C(=O)Cn1cnc2ccc(N3CCN(C(=O)C4CC(F)C4)CC3)cc2c1=O` (stereo not shown) [Example 74] had an IC50 of 7 nM.

On to `CC(=O)N1CCC(c2ccc3ncn(CC(=O)NCc4cc(Cl)cc(Cl)c4)c(=O)c3c2)CC1` [Example 164], for which the half-maximal inhibitory concentration (IC50) was 25 nM.

With `CN(Cc1ccc(Cl)c(Cl)c1)C(=O)Cn1cnc2ccc(C3CCN(C(=O)C4(O)CCC4)CC3)cc2c1=O` [Example 176], the concentration for half-maximal inhibition (IC50) stood at 46 nM.

With `CN(Cc1ccc(Cl)c(C#N)c1)C(=O)Cn1cnc2ccc(N3CCCN(CC4CCOC4)CC3)cc2c1=O` (stereo not shown) [Example 130, N-[(4-Chloro-3-cyanophenyl)methyl]-N-methyl-2-[4-oxo-6-[4-(oxolan-3-ylmethyl)-1,4-diazepan-1-yl]quinazolin-3-yl]acetamide], the 50% inhibitory concentration (IC50) stood at 111 nM.

In turn, `CC(=O)N1CCCN(c2ccc3ncn(CC(=O)NCc4ccc(C(F)(F)F)cc4)c(=O)c3c2)CC1` [Example 119] showed an IC50 of 649 nM.

On to `CC(=O)N1CCN(c2ccc3ncn(CC(=O)NCc4ccc(F)cc4)c(=O)c3c2)CC1` [Example 14], for which the half-maximal inhibitory concentration (IC50) is 1470 nM.

For `CC(C)C(=O)N1CCN(c2ccc3ncn(CC(=O)N(C)Cc4ccc(Cl)c(Cl)c4)c(=O)c3c2)CC1` [Example 69], half-maximal inhibition (IC50) required 3 nM.

As for `O=C(Cn1cnc2ccc(N3CCN(Cc4ncc[nH]4)CC3)cc2c1=O)NCc1ccc(Cl)c(Cl)c1` [Example 100], inhibition was half-maximal at 204 nM (IC50).

`CC(=O)N1CCN(c2ccc3ncn(CC(=O)NCc4ccc([N+](=O)[O-])cc4)c(=O)c3c2)CC1` [Example 21] showed an IC50 of 52 nM.

`CC(=O)N1CCN(c2ccc3ncn(CC(=O)NCc4ccc(Cl)cc4Cl)c(=O)c3c2)CC1` [Example 23] gave a concentration for half-maximal inhibition (IC50) of 72 nM.

`COCCN1CCN(c2ccc3ncn(CC(=O)N(C)Cc4ccc(Cl)c(Cl)c4)c(=O)c3c2)CC1` [Example 105] gave a half-inhibitory concentration (IC50) of 59 nM.

`CN(Cc1ccc(Cl)c(Cl)c1)C(=O)Cn1cnc2ccc(C3CCN(C(=O)C4COCCO4)CC3)cc2c1=O` (stereo not shown) [Example 178] registered an IC50 of 34 nM.

For the molecule `CN(Cc1ccc(C#N)c(Cl)c1)C(=O)Cn1cnc2ccc(C3CCN(CC4CCOC4)CC3)cc2c1=O` (stereo not shown) [Example 143, N-[(3-Chloro-4-cyanophenyl)methyl]-N-methyl-2-[4-oxo-6-[1-(oxolan-3-ylmethyl)piperidin-4-yl]quinazolin-3-yl]acetamide], the half-inhibitory concentration (IC50) was 46 nM.

In turn, `CC(=O)N1CCC(c2cc(F)c3ncn(CC(=O)N(C)Cc4ccc(C#N)c(Cl)c4)c(=O)c3c2)CC1` [Example 187, 2-[6-(1-Acetylpiperidin-4-yl)-8-fluoro-4-oxoquinazolin-3-yl]-N-[(3-chloro-4-cyanophenyl)methyl]-N-methylacetamide] displayed an IC50 of 1 nM.

In the case of `CCN(Cc1ccc(Cl)c(Cl)c1)C(=O)Cn1cnc2ccc(N3CCN(C(C)=O)CC3)cc2c1=O` [Example 116, 2-[6-(4-Acetylpiperazin-1-yl)-4-oxoquinazolin-3-yl]-N-[(3,4-dichlorophenyl)methyl]-N-ethylacetamide], 16 nM corresponded to half-maximal inhibition (IC50).

The molecule `Cn1cccc1CN1CCN(c2ccc3ncn(CC(=O)NCc4ccc(Cl)c(Cl)c4)c(=O)c3c2)CC1` [Example 99] came in with an IC50 of 31 nM.

`CC(=O)N1CCC(c2ccc3ncn(CC(=O)NCc4ccc(Cl)c(Cl)c4)c(=O)c3c2)CC1` [Example 122] came in with an IC50 of 12 nM.

As to `CC(=O)N1CCN(c2ccc3ncn(CC(=O)NCc4ccc(C#N)c(Cl)c4)c(=O)c3c2)CC1` [Example 25], the IC50 came to 16 nM.

Turning to `CC(C)NC(=O)N1CCN(c2ccc3ncn(CC(=O)NCc4ccc(Cl)c(Cl)c4)c(=O)c3c2)CC1` [Example 82, 4-[3-[2-[(3,4-Dichlorophenyl)methylamino]-2-oxoethyl]-4-oxoquinazolin-6-yl]-N-propan-2-ylpiperazine-1-carboxamide], it took 43 nM to reach half-maximal inhibition (IC50).

As to `CN(Cc1ccc(Cl)c(Cl)c1)C(=O)Cn1cnc2ccc(C3CCN(C(=O)C(C)(C)O)CC3)cc2c1=O` [Example 172], half-maximal inhibition (IC50) required 21 nM.

The molecule `CC(C)CC(=O)N1CCN(c2ccc3ncn(CC(=O)NCc4ccc(Cl)c(Cl)c4)c(=O)c3c2)CC1` [Example 59, N-[(3,4-Dichlorophenyl)methyl]-2-[6-[4-(3-methylbutanoyl)piperazin-1-yl]-4-oxoquinazolin-3-yl]acetamide] had a 50% inhibitory concentration (IC50) of 70 nM.

The molecule `CC(C)[C@@H](O)C(=O)N1CCC(c2ccc3ncn(CC(=O)N(C)Cc4ccc(C#N)c(Cl)c4)c(=O)c3c2)CC1` [Example 157] returned a concentration for half-maximal inhibition (IC50) of 10 nM.

With `CO[C@H](C)C(=O)N1CCC(c2ccc3ncn(CC(=O)N(C)Cc4ccc(Cl)c(Cl)c4)c(=O)c3c2)CC1` [Example 167], the half-maximal inhibitory concentration (IC50) was determined as 4 nM.

`CC(=O)N1CCN(c2ccc3ncn(C(C)C(=O)N(C)Cc4ccc(Cl)c(Cl)c4)c(=O)c3c2)CC1` (stereo not shown) [Example 149, 2-[6-(4-Acetylpiperazin-1-yl)-4-oxoquinazolin-3-yl]-N-[(3,4-dichlorophenyl)methyl]-N-methylpropanamide]: it took 39 nM to reach half-maximal inhibition (IC50).

Molecule `CC(=O)N1CCC(c2ccc3ncn(CC(=O)NCc4ccc(Cl)c(C(F)(F)F)c4)c(=O)c3c2)CC1` [Example 163] had a 50% inhibitory concentration (IC50) of 1 nM.

Turning to `CN(Cc1ccc(Cl)c(Cl)c1)C(=O)Cn1cnc2ccc(N3CCN(C(=O)C4CC(Cl)C4)CC3)cc2c1=O` (stereo not shown) [Example 77], the IC50 worked out at 3 nM.

`Cc1noc(C)c1NC(=O)N1CCN(c2ccc3ncn(CC(=O)NCc4ccc(Cl)c(Cl)c4)c(=O)c3c2)CC1` [Example 86] had an IC50 of 133 nM.

For `CN(Cc1ccc(Cl)c(Cl)c1)C(=O)Cn1cnc2ccc(N3CCN(CC(=O)Nc4ccccc4)CC3)cc2c1=O` [Example 112], inhibition was half-maximal at 71 nM (IC50).

In turn, `CS(=O)(=O)N1CCN(c2ccc3ncn(CC(=O)NCc4ccc(Cl)c(Cl)c4)c(=O)c3c2)CC1` [Example 88, N-[(3,4-Dichlorophenyl)methyl]-2-[6-(4-methylsulfonylpiperazin-1-yl)-4-oxoquinazolin-3-yl]acetamide] had an IC50 of 88 nM.

`CC(=O)N1CCC(c2ccc3ncn(CC(=O)N(C)Cc4ccc(Cl)c(C#N)c4)c(=O)c3c2)CC1` [Example 126]: the 50% inhibitory concentration (IC50) worked out at 12 nM.

Turning to `CC(=O)N1CCN(c2ccc3ncn(CC(=O)NCc4cc(Cl)c(Cl)cn4)c(=O)c3c2)CC1` [Example 41], the IC50 came to 21 nM.

Molecule `CC(=O)N1CCN(c2ccc3ncn(CC(=O)NCc4ccc(C(F)(F)F)cc4)c(=O)c3c2)CC1` [Example 17] registered an IC50 of 137 nM.

The molecule `CN(Cc1ccc(C#N)c(Cl)c1)C(=O)Cn1cnc2ccc(N3CCCN(CC4CCOC4)CC3)cc2c1=O` (stereo not shown) [Example 129, N-[(3-Chloro-4-cyanophenyl)methyl]-N-methyl-2-[4-oxo-6-[4-(oxolan-3-ylmethyl)-1,4-diazepan-1-yl]quinazolin-3-yl]acetamide] yielded an IC50 of 26 nM.

With `CN(Cc1ccc(C#N)c(Cl)c1)C(=O)Cn1cnc2ccc(N3CCN(CC4CCOC4)CC3)cc2c1=O` (stereo not shown) [Example 114, N-[(3-Chloro-4-cyanophenyl)methyl]-N-methyl-2-[4-oxo-6-[4-(oxolan-3-ylmethyl)piperazin-1-yl]quinazolin-3-yl]acetamide], the IC50 is 26 nM.

Molecule `CN(Cc1ccc(C#N)c(Cl)c1)C(=O)Cn1cnc2ccc(C3CCN(C(=O)C4CC(F)C4)CC3)cc2c1=O` (stereo not shown) [Example 138] had a half-inhibitory concentration (IC50) of 3 nM.

Molecule `CC(=O)N1CCN(c2ccc3ncn(CC(=O)NCc4ccc(C#N)nc4)c(=O)c3c2)CC1` [Example 18] yielded an IC50 of 14 nM.

The molecule `CC(=O)N1CCC(c2ccc3ncn(CC(=O)NCc4ccc(F)c(C(F)(F)F)c4)c(=O)c3c2)CC1` [Example 162] returned a concentration for half-maximal inhibition (IC50) of 44 nM.

In the case of `NC1(C(=O)N2CCN(c3ccc4ncn(CC(=O)NCc5ccc(Cl)c(Cl)c5)c(=O)c4c3)CC2)COC1` [Example 70, 2-[6-[4-(3-Aminooxetane-3-carbonyl)piperazin-1-yl]-4-oxoquinazolin-3-yl]-N-[(3,4-dichlorophenyl)methyl]acetamide], the midpoint of inhibition, the IC50, lay at 318 nM.

For `CC(=O)N1CCN(c2ccc3ncn(CC(=O)N(C)Cc4ccc(Cl)c(Cl)c4)c(=O)c3c2)CC1` [Example 44], it took 17 nM to reach half-maximal inhibition (IC50).

On to `CN(Cc1ccc(Cl)c(Cl)c1)C(=O)Cn1cnc2ccc(N3CCN(C(=O)C4(C)COC4)CC3)cc2c1=O` [Example 80], for which the 50% inhibitory concentration (IC50) worked out at 12 nM.

These data come from patent publication US10676446B2, “Bicyclic quinazolinone derivatives” (Hoffmann-La Roche Inc., priority 2015, dated 2020).
